The results in this text go back to patent US20090018194A1, “Use of antimicrobial agents derived from alliaceous plants for the prevention and control of crop diseases, post-harvest rot and as environmental disinifectant products” (DMC Research Center, S.L., priority 2007, published 2009).

In data set [1] the test system is Penicillium italicum CECT 2294. As to the kind of experiment: agar diffusion test with impregnated cellulose discs. The conditions noted are these: incl. 6 mm disc. The class given is cell-based.
The subject of data set [2] is Geotrichum candidum CECT 1902. The experiment in a line: agar diffusion test, commercial phytosanitaries. The conditions noted are these: incl. 6 mm disc. The class given is cell-based.
Data set [3] concerns Trichoderma aureoviride CECT 20102. As to the kind of experiment: agar diffusion test, commercial phytosanitaries. The class given is cell-based. As to conditions: incl. 6 mm disc.
In data set [4] the test system is Rhizopus stolonifer ATCC 24862. The experiment in a line: agar diffusion test, commercial phytosanitaries. The class given is cell-based. As to conditions: incl. 6 mm disc.
Data set [5] deals with Botrytis cinerea. The experiment in a line: post-harvest rotting of inoculated pears, drencher treatment. The class given is in vivo. The conditions noted are these: 450 ppm, 15 days of refrigeration at 5-6° C. As for the experimental part: (§1) The effectiveness of the active principle PTS (in various individual doses) was studied in the control of post-harvest rotting of pears and apples caused by the fungi Botrytis cinerea and Penicillium expansum, the principal agents of diseases in these fruits. These phytopathogens can appear in fruit being stored in a cold room and, once in the processing plant and in a later phase, form colonies and are transferred from one fruit to another by contact. The study was performed by means of a controlled inoculation test to ensure a high percentage of affected fruits, and to guarantee that this level of infection is with certainty caused by these pathogens, thereby making it possible to detect and evaluate significant differences between the different treatments. […] To perform the controlled inoculation, wild strains of Botrytris cinerea and Penicillium expansum were used which were isolated in fruit and vegetable processing plants. […] After the time indicated above had passed, the various post-harvest treatments were carried out by means of […] 25° C. for 60 seconds.

Data set [6] concerns Penicillium expansum. Described as above. As to conditions: 450 ppm, 15 days of refrigeration at 5-6° C. The class given is in vivo. On the procedure: as §1
Data set [7] relates to Botrytis cinerea. As to the kind of experiment: post-harvest rotting of inoculated apples, drencher treatment. The class given is in vivo. The conditions noted are these: 450 ppm, 15 days of refrigeration at 5-6° C. As for the experimental part:
as §1

Data set [8] has as its system Penicillium expansum. Described as above. The class given is in vivo. The conditions noted are these: 450 ppm, 15 days of refrigeration at 5-6° C. On the procedure:
as §1

The subject of data set [9] is pears (Decana and Flor de Invierno varieties). The experiment in a line: phytotoxicity on treated pears. The conditions noted are these: 450 ppm.
For data set [10], the system named is apples (Golden Delicious and Red Chief varieties). The experiment in a line: phytotoxicity on treated apples. The conditions noted are these: 450 ppm.

Regarding `c1ccc(-c2ccccc2)cc1` [Biphenyl], the “diameter of the microbial inhibition halo” value is reported as 7 mm in data set [1] (4000 ppm active principle); 8 mm in [1] (6000 ppm active principle); 0 mm in data set [2] (4000 ppm active principle); 0 mm in data set [2] (6000 ppm active principle); 0 mm in data set [3] (4000 ppm active principle); 0 mm in data set [3] (6000 ppm active principle). In addition, the “diameter of the microbial inhibition halo” value in data set [4] (4000 ppm active principle) and in data set [4] (6000 ppm active principle) was 0 mm in each case.

As to `Oc1ccccc1-c1ccccc1` [o-pheynl phenol], the “diameter of the microbial inhibition halo” value was 45 mm in data set [1] (4000 ppm active principle); 45 mm in data set [1] (6000 ppm active principle); 45 mm in data set [2] (4000 ppm active principle); 47 mm in data set [2] (6000 ppm active principle); 40 mm in data set [3] (4000 ppm active principle); 42 mm in data set [3] (6000 ppm active principle). In addition, the “diameter of the microbial inhibition halo” value in [4] (4000 ppm active principle) is 14 mm; in [4] (6000 ppm active principle) it was 15 mm.

For the molecule imazalil sulfate [reference compound], the “% of fruit affected” value is listed as 19% in data set [5] (Decana); 24% in data set [5] (Flor de invierno); 4.5% in [6] (Decana); 6.7% in data set [6] (Flor de invierno); 10% in data set [7] (Golden Delicious); 12% in [7] (Red Chief). The “% of fruit affected” value is recorded as 4.3% in data set [8] (Golden Delicious) and 6.2% in data set [8] (Red Chief). Further, the “Phytotoxicity (number of damaged fruits)” value is given as 0 in [9] (Decana, fruit inoculated with Botrytis cinerea); 0 in data set [9] (Decana, fruit inoculated with Penicillium expansum); 0 in data set [9] (Flor de invierno, fruit inoculated with Botrytis cinerea); 0 in [9] (Flor de invierno, fruit inoculated with Penicillium expansum); 0 in data set [10] (Golden Delicious, fruit inoculated with Botrytis cinerea); 0 in data set [10] (Golden Delicious, fruit inoculated with Penicillium expansum). Moreover, the “Phytotoxicity (number of damaged fruits)” value in [10] (Red Chief, fruit inoculated with Botrytis cinerea) was determined as 0; in [10] (Red Chief, fruit inoculated with Penicillium expansum), 0.
